Experimental data reported in ChEMBL document CHEMBL1687815, “In vivo selection of a missense mutation in adeR and conversion of the novel blaOXA-164 gene into blaOXA-58 in carbapenem-resistant Acinetobacter baumannii isolates from a hospitalized patient” (2010).
In brackets after ≈: the same amount, converted by molar mass. Activity calls are given as the source filed them. No cut-off for these calls is given here.

Key:
Acinetobacter baumannii [1] = experiment: Antimicrobial activity against Acinetobacter baumannii isolate J expressing beta-lactamase OXA-58 isolated from bedsore by vitek 2 system
Acinetobacter baumannii [2] = experiment: Antimicrobial activity against Acinetobacter baumannii isolate K expressing beta-lactamase OXA-58 isolated from blood culture of patient by vitek 2 system
Acinetobacter baumannii [3] = experiment: Antimicrobial activity against Acinetobacter baumannii isolate G expressing beta-lactamase OXA-58 isolated from tracheal secretion of patient by vitek 2 system
Acinetobacter baumannii [4] = experiment: Antimicrobial activity against Acinetobacter baumannii isolate H expressing beta-lactamase OXA-58 isolated from tracheal secretion of patient by vitek 2 system
Acinetobacter baumannii [5] = experiment: Antimicrobial activity against Acinetobacter baumannii isolate I expressing beta-lactamase OXA-58 isolated from tracheal secretion of patient by vitek 2 system
Acinetobacter baumannii [6] = experiment: Antimicrobial activity against Acinetobacter baumannii isolate L expressing beta-lactamase OXA-58 isolated from tracheal secretion of patient by vitek 2 system
Acinetobacter baumannii [7] = experiment: Antimicrobial activity against Acinetobacter baumannii isolate M expressing beta-lactamase OXA-58 isolated from tracheal secretion of patient by vitek 2 system
Acinetobacter baumannii [8] = experiment: Antimicrobial activity against Acinetobacter baumannii isolate A expressing beta-lactamase OXA-164 isolated from tracheal secretion of patient by vitek 2 system
Acinetobacter baumannii [9] = experiment: Antimicrobial activity against Acinetobacter baumannii isolate B expressing beta-lactamase OXA-164 isolated from tracheal secretion of patient by vitek 2 system
Acinetobacter baumannii [10] = experiment: Antimicrobial activity against Acinetobacter baumannii isolate C expressing beta-lactamase OXA-164 isolated from tracheal secretion of patient by vitek 2 system
Acinetobacter baumannii [11] = experiment: Antimicrobial activity against Acinetobacter baumannii isolate D expressing beta-lactamase OXA-164 isolated from tracheal secretion of patient by vitek 2 system
Acinetobacter baumannii [12] = experiment: Antimicrobial activity against Acinetobacter baumannii isolate E expressing beta-lactamase OXA-164 isolated from tracheal secretion of patient by vitek 2 system
Acinetobacter baumannii [13] = experiment: Antimicrobial activity against Acinetobacter baumannii isolate F expressing beta-lactamase OXA-164 isolated from tracheostoma of patient by vitek 2 system
Acinetobacter baumannii [14] = experiment: Antimicrobial activity against Acinetobacter baumannii isolate J expressing beta-lactamase OXA-58 isolated from bedsore by Etest
Acinetobacter baumannii [15] = experiment: Antimicrobial activity against Acinetobacter baumannii isolate F expressing beta-lactamase OXA-164 isolated from tracheostoma of patient by Etest
Acinetobacter baumannii [16] = experiment: Antimicrobial activity against Acinetobacter baumannii isolate K expressing beta-lactamase OXA-58 isolated from blood culture of patient by Etest
Acinetobacter baumannii [17] = experiment: Antimicrobial activity against Acinetobacter baumannii isolate G expressing beta-lactamase OXA-58 isolated from tracheal secretion of patient by Etest
Acinetobacter baumannii [18] = experiment: Antimicrobial activity against Acinetobacter baumannii isolate H expressing beta-lactamase OXA-58 isolated from tracheal secretion of patient by Etest
Acinetobacter baumannii [19] = experiment: Antimicrobial activity against Acinetobacter baumannii isolate I expressing beta-lactamase OXA-58 isolated from tracheal secretion of patient by Etest
Acinetobacter baumannii [20] = experiment: Antimicrobial activity against Acinetobacter baumannii isolate L expressing beta-lactamase OXA-58 isolated from tracheal secretion of patient by Etest
Acinetobacter baumannii [21] = experiment: Antimicrobial activity against Acinetobacter baumannii isolate M expressing beta-lactamase OXA-58 isolated from tracheal secretion of patient by Etest
Acinetobacter baumannii [22] = experiment: Antimicrobial activity against Acinetobacter baumannii isolate A expressing beta-lactamase OXA-164 isolated from tracheal secretion of patient by Etest
Acinetobacter baumannii [23] = experiment: Antimicrobial activity against Acinetobacter baumannii isolate B expressing beta-lactamase OXA-164 isolated from tracheal secretion of patient by Etest
Acinetobacter baumannii [24] = experiment: Antimicrobial activity against Acinetobacter baumannii isolate C expressing beta-lactamase OXA-164 isolated from tracheal secretion of patient by Etest
Acinetobacter baumannii [25] = experiment: Antimicrobial activity against Acinetobacter baumannii isolate D expressing beta-lactamase OXA-164 isolated from tracheal secretion of patient by Etest
Acinetobacter baumannii [26] = experiment: Antimicrobial activity against Acinetobacter baumannii isolate E expressing beta-lactamase OXA-164 isolated from tracheal secretion of patient by Etest

Compound	MIC (Acinetobacter baumannii [1])	MIC (Acinetobacter baumannii [2])	MIC (Acinetobacter baumannii [3])	MIC (Acinetobacter baumannii [4])	MIC (Acinetobacter baumannii [5])	MIC (Acinetobacter baumannii [6])	MIC (Acinetobacter baumannii [7])	MIC (Acinetobacter baumannii [8])	MIC (Acinetobacter baumannii [9])	MIC (Acinetobacter baumannii [10])	MIC (Acinetobacter baumannii [11])	MIC (Acinetobacter baumannii [12])	MIC (Acinetobacter baumannii [13])	MIC (Acinetobacter baumannii [14]) [µg/mL]	MIC (Acinetobacter baumannii [15]) [µg/mL]	MIC (Acinetobacter baumannii [16]) [µg/mL]	MIC (Acinetobacter baumannii [17]) [µg/mL]	MIC (Acinetobacter baumannii [18]) [µg/mL]	MIC (Acinetobacter baumannii [19]) [µg/mL]	MIC (Acinetobacter baumannii [20]) [µg/mL]	also measured
O=C(O)c1cn(C2CC2)c2cc(N3CCNCC3)c(F)cc2c1=O	inactive	inactive	inactive	inactive	inactive	inactive	inactive	inactive	inactive	inactive	inactive	inactive	–	–	–	–	–	–	–	–	–
NCC[C@H](O)C(=O)N[C@@H]1C[C@H](N)[C@@H](O[C@H]2O[C@H](CN)[C@@H](O)[C@H](O)[C@H]2O)[C@H](O)[C@H]1O[C@H]1O[C@H](CO)[C@@H](O)[C@H](N)[C@H]1O [AMIKACIN]	≥ 64 µg/mL	≥ 64 µg/mL	≥ 64 µg/mL	≥ 64 µg/mL	≥ 64 µg/mL	≥ 64 µg/mL	≥ 64 µg/mL	≥ 64 µg/mL	≥ 64 µg/mL	32 µg/mL (≈ 54.6 µM)	≤ 2 µg/mL	≤ 2 µg/mL	≥ 64 µg/mL	–	–	–	–	–	–	–	–
C[C@H]1COc2c(N3CCN(C)CC3)c(F)cc3c(=O)c(C(=O)O)cn1c23.C[C@H]1COc2c(N3CCN(C)CC3)c(F)cc3c(=O)c(C(=O)O)cn1c23.O [LEVOFLOXACIN]	–	–	–	–	–	–	–	–	–	–	–	–	–	≥ 64	8	≥ 64	≥ 64	≥ 64	≥ 64	≥ 64	MIC (Acinetobacter baumannii [21]): ≥ 64 µg/mL; MIC (Acinetobacter baumannii [22]): 8 µg/mL; MIC (Acinetobacter baumannii [23]): 8 µg/mL; MIC (Acinetobacter baumannii [24]): 8 µg/mL; MIC (Acinetobacter baumannii [25]): 8 µg/mL; MIC (Acinetobacter baumannii [26]): 16 µg/mL
CN(C)c1cc(NC(=O)CNC(C)(C)C)c(O)c2c1C[C@H]1C[C@H]3[C@H](N(C)C)C(O)=C(C(N)=O)C(=O)[C@@]3(O)C(O)=C1C2=O [TIGECYCLINE]	≥ 8 µg/mL	≥ 8 µg/mL	≥ 8 µg/mL	≥ 8 µg/mL	≥ 8 µg/mL	≥ 8 µg/mL	≥ 8 µg/mL	2 µg/mL (≈ 3.41 µM)	2 µg/mL (≈ 3.41 µM)	2 µg/mL (≈ 3.41 µM)	2 µg/mL (≈ 3.41 µM)	2 µg/mL (≈ 3.41 µM)	2 µg/mL (≈ 3.41 µM)	16 (≈ 27.3 µM)	4 (≈ 6.83 µM)	16 (≈ 27.3 µM)	16 (≈ 27.3 µM)	16 (≈ 27.3 µM)	16 (≈ 27.3 µM)	16 (≈ 27.3 µM)	MIC (Acinetobacter baumannii [21]): 16 µg/mL (≈ 27.3 µM); MIC (Acinetobacter baumannii [22]): 4 µg/mL (≈ 6.83 µM); MIC (Acinetobacter baumannii [23]): 4 µg/mL (≈ 6.83 µM); MIC (Acinetobacter baumannii [24]): 4 µg/mL (≈ 6.83 µM); MIC (Acinetobacter baumannii [25]): 4 µg/mL (≈ 6.83 µM); MIC (Acinetobacter baumannii [26]): 4 µg/mL (≈ 6.83 µM)
NC[C@H]1O[C@H](O[C@H]2[C@H](O)[C@@H](O[C@H]3O[C@H](CO)[C@@H](O)[C@H](N)[C@H]3O)[C@H](N)C[C@@H]2N)[C@H](N)C[C@@H]1O [TOBRAMYCIN]	8 µg/mL (≈ 17.1 µM)	8 µg/mL (≈ 17.1 µM)	≤ 1 µg/mL	≤ 1 µg/mL	≤ 1 µg/mL	≤ 1 µg/mL	≤ 1 µg/mL	≤ 1 µg/mL	≤ 1 µg/mL	≤ 1 µg/mL	≤ 1 µg/mL	≤ 1 µg/mL	≤ 1 µg/mL	16 (≈ 34.2 µM)	2 (≈ 4.28 µM)	16 (≈ 34.2 µM)	4 (≈ 8.56 µM)	4 (≈ 8.56 µM)	4 (≈ 8.56 µM)	4 (≈ 8.56 µM)	MIC (Acinetobacter baumannii [21]): 4 µg/mL (≈ 8.56 µM); MIC (Acinetobacter baumannii [22]): 2 µg/mL (≈ 4.28 µM); MIC (Acinetobacter baumannii [23]): 4 µg/mL (≈ 8.56 µM); MIC (Acinetobacter baumannii [24]): 2 µg/mL (≈ 4.28 µM); MIC (Acinetobacter baumannii [25]): 2 µg/mL (≈ 4.28 µM); MIC (Acinetobacter baumannii [26]): 2 µg/mL (≈ 4.28 µM)
COLISTIN	< 1 µg/mL	< 1 µg/mL	< 1 µg/mL	< 1 µg/mL	< 1 µg/mL	< 1 µg/mL	< 1 µg/mL	< 1 µg/mL	< 1 µg/mL	< 1 µg/mL	< 1 µg/mL	< 1 µg/mL	< 1 µg/mL	–	–	–	–	–	–	–	–
GENTAMICIN	inactive	inactive	inactive	inactive	inactive	inactive	inactive	inactive	inactive	inactive	inactive	inactive	inactive	–	–	–	–	–	–	–	–
